From US12655116B2, “Substituted isophthalic acid diamides” (Bayer Aktiengesellschaft, priority 2020, dated 2026)

Experiments:
[1] = test system: ABUTH; assay: Pre-emergence herbicidal action against ABUTH; assay type: in vivo, Abutilon theophrasti
In short: (§1)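 Herbicidal effect was assessed 3 weeks after treatment by visual comparison with untreated controls, 100% denoting dead plants. Aqueous WP or EC preparations had been applied at 600 to 800 l/ha with 0.2% wetting agent to the soil covering freshly sown seeds.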

[2] = test system: ALOMY; assay: Pre-emergence herbicidal action against ALOMY; assay type: in vivo, Alopecurus myosuroides; settings: 80 g/ha, pre-emergence, scored visually after 3 weeks vs untreated controls (100% = plants have died, 0% = like control plants)
In short: as §1

[3] = test system: AMARE; assay: Pre-emergence herbicidal action against AMARE; assay type: in vivo, Amaranthus retroflexus
In short: as §1

[4] = test system: AVEFA; assay: Pre-emergence herbicidal action against AVEFA; assay type: in vivo, Avena fatua; settings: 80 g/ha, pre-emergence
In short: as §1

[5] = test system: ECHCG; assay: Pre-emergence herbicidal action against ECHCG; assay type: in vivo, Echinochloa crus-galli
In short: as §1

[6] = test system: HORMU; assay: Pre-emergence herbicidal action against HORMU; assay type: in vivo, Hordeum murinum; settings: 80 g/ha, pre-emergence
Source text: Seeds of monocotyledonous and dicotyledonous weed plants and crop plants are laid out in sandy loam soil in wood-fiber pots and covered with soil. The compounds of the invention, formulated in the form of wettable powders (WP) or as emulsion concentrates (EC), are then applied to the surface of the covering soil in the form of an aqueous suspension or emulsion at a water application rate equivalent to 600 to 800 l/ha, with addition of 0.2% wetting agent. After the treatment, the pots are placed in a greenhouse and kept under good growth conditions for the trial plants. The damage to the test plants is scored visually after a test period of 3 weeks by comparison with untreated controls (herbicidal activity in percent (%): 100% activity=the plants have died, 0% activity=like control plants). […] The tables below illustrate, in an illustrative manner, the post-emergence herbicidal action of the compounds of the invention, the herbicidal activity being stated in percent.

[7] = test system: MATIN; assay: Pre-emergence herbicidal action against MATIN; assay type: in vivo, Matricaria inodora
In short: as §1

[8] = test system: SETVI; assay: Pre-emergence herbicidal action against SETVI; assay type: in vivo, Setaria viridis
In short: as §1

[9] = test system: STEME; assay: Pre-emergence herbicidal action against STEME; assay type: in vivo, Stellaria media
In short: as §1

[10] = test system: VIOTR; assay: Pre-emergence herbicidal action against VIOTR; assay type: in vivo, Viola tricolor; settings: dosage 80 g/ha
In short: as §1

[11] = test system: DIGSA; assay: Pre-emergence herbicidal action against DIGSA; assay type: in vivo, Digitaria sanguinalis; settings: dosage 80 g/ha
In short: as §1

[12] = test system: ABUTH; assay: Post-emergence herbicidal action against ABUTH; assay type: in vivo, Abutilon theophrasti; settings: visual assessment about 3 weeks after treatment vs untreated controls
In short: (§2)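 Herbicidal effect was scored visually in percent after about 3 weeks in the greenhouse. Plants had been raised in sandy loam and treated post-emergence at the one-leaf stage with formulated compound at 600 to 800 l/ha water plus 0.2% wetting agent.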

[13] = test system: ALOMY; assay: Post-emergence herbicidal action against ALOMY; assay type: in vivo, Alopecurus myosuroides; settings: dosage 20 g/ha, visual assessment about 3 weeks after treatment vs untreated controls
In short: as §2

[14] = test system: AMARE; assay: Post-emergence herbicidal action against AMARE; assay type: in vivo, Amaranthus retroflexus; settings: 20 g/ha, visual assessment about 3 weeks after treatment, 100% = plants have died, 0% = like control plants
In short: as §2

[15] = test system: ECHCG; assay: Post-emergence herbicidal action against ECHCG; assay type: in vivo, Echinochloa crus-galli; settings: dosage 20 g/ha
In short: as §2

[16] = test system: MATIN; assay: Post-emergence herbicidal action against MATIN; assay type: in vivo, Matricaria inodora; settings: dosage 20 g/ha
In short: as §2

[17] = test system: SETVI; assay: Post-emergence herbicidal action against SETVI; assay type: in vivo, Setaria viridis
In short: as §2

[18] = test system: STEME; assay: Post-emergence herbicidal action against STEME; assay type: in vivo, Stellaria media
In short: as §2

[19] = test system: VIOTR; assay: Post-emergence herbicidal action against VIOTR; assay type: in vivo, Viola tricolor; settings: 20 g/ha
In short: as §2

[20] = test system: DIGSA; assay: Post-emergence herbicidal action against DIGSA; assay type: in vivo, Digitaria sanguinalis
In short: as §2

[21] = test system: VERPE; assay: Pre-emergence herbicidal action against VERPE; assay type: in vivo, Veronica persica; settings: Veronica persica, 504 h
In short: as §1

[22] = test system: AVEFA; assay: Post-emergence herbicidal action against AVEFA; assay type: in vivo, Avena fatua; settings: Avena fatua, 504 h, 20 g/ha, visual assessment about 3 weeks after treatment, 100% = plants have died, 0% = like control plants
In short: as §2

[23] = 80 g/ha, scored visually after 3 weeks vs untreated controls (100% = plants have died, 0% = like control plants)

Cc1nnc(NC(=O)c2ccc(C(F)F)c(C(=O)NC3CC3)c2Cl)o1 [Example 6-124] was tested. Which “Pre-emergence action against ABUTH (herbicidal activity)” value [1, 23] did it give?
The value was 100%.

And the “Pre-emergence action against ABUTH (herbicidal activity in percent)” value ([1]; dosage 20 g/ha, scored visually after 3 weeks vs untreated controls, 100% = plants have died, 0% = like control plants)?
The value was 100%.

And the “Pre-emergence action against ALOMY (herbicidal activity)” value [2]?
Its value is 90%.

What about the “Pre-emergence action against AMARE in %” value ([3]; 20 g/ha, scored visually after 3 weeks vs untreated controls, 100% = plants have died, 0% = like control plants) of the same compound?
The value was 100%.

And the “Pre-emergence action against AMARE in %” value [3, 23]?
The value was 100%.

And the “Pre-emergence action against AVEFA in %” value [4]?
Its value is 90%.

And the “Pre-emergence action against ECHCG in %” value ([5]; 20 g/ha)?
The value was 80%.

What about the “Pre-emergence action against ECHCG in %” value ([5]; 80 g/ha) of the same compound?
Its value is 100%.

And the “Pre-emergence action against HORMU in %” value [6]?
Its value is 80%.

What about the “Pre-emergence action against MATIN in %” value ([7]; dosage 20 g/ha) of the same compound?
Its value is 90%.

What about the “Pre-emergence action against MATIN in %” value ([7]; dosage 80 g/ha) of the same compound?
Its value is 100%.

What about the “Pre-emergence action against SETVI in %” value ([8]; dosage 20 g/ha) of the same compound?
The value was 80%.

And the “Pre-emergence action against SETVI in %” value ([8]; dosage 80 g/ha)?
The value was 100%.

What about the “Pre-emergence action against STEME in %” value ([9]; dosage 20 g/ha) of the same compound?
Its value is 80%.

What about the “Pre-emergence action against STEME in %” value ([9]; dosage 80 g/ha) of the same compound?
The value was 90%.

What about the “Pre-emergence action against VIOTR in %” value [10] of the same compound?
Its value is 100%.

And the “Pre-emergence action against DIGSA in %” value [11]?
The value was 100%.

What about the “Post-emergence action against ABUTH in %” value ([12]; dosage 5 g/ha) of the same compound?
Its value is 80%.

And the “Post-emergence action against ABUTH in %” value ([12]; dosage 20 g/ha)?
The value was 80%.

And the “Post-emergence action against ALOMY in %” value [13]?
The value was 90%.

And the “Post-emergence action at 20 g/ha against AMARE in %” value [14]?
The value was 100%.

And the “Post-emergence action against ECHCG in %” value [15]?
Its value is 80%.

What about the “Post-emergence action against MATIN in %” value [16] of the same compound?
Its value is 80%.

What about the “Post-emergence action against SETVI in %” value ([17]; dosage 5 g/ha) of the same compound?
Its value is 80%.

And the “Post-emergence action against SETVI in %” value ([17]; dosage 20 g/ha)?
The value was 90%.

And the “Post-emergence action against STEME in %” value ([18]; 20 g/ha)?
The value was 90%.

And the “Post-emergence action against STEME in %” value ([18]; dosage 5 g/ha)?
The value was 90%.

And the “Post-emergence action against VIOTR in %” value [19]?
The value was 100%.

What about the “Post-emergence action against DIGSA” value ([20]; 20 g/ha) of the same compound?
Its value is 90%.

With CNC(=O)c1c(Cl)ccc(C(=O)Nc2nnnn2C)c1C [Example 1-4] as the compound, how does the pest or weed control at 80 g/ha ([1]; Abutilon theophrasti, 504 h, 80 g/ha, scored visually after 3 weeks vs untreated controls (100% = plants have died, 0% = like control plants)) read?
Its pest or weed control at 80 g/ha is 100%.

What about the pest or weed control at 80 g/ha ([2]; Alopecurus myosuroides, 504 h) of the same compound?
The pest or weed control at 80 g/ha was 80%.

What about the pest or weed control at 20 g/ha ([3]; Amaranthus retroflexus, 504 h, 20 g/ha, scored visually after 3 weeks vs untreated controls, 100% = plants have died, 0% = like control plants) of the same compound?
Its pest or weed control at 20 g/ha is 90%.

And the pest or weed control at 80 g/ha ([3]; Amaranthus retroflexus, 504 h, 80 g/ha, scored visually after 3 weeks vs untreated controls, 100% = plants have died, 0% = like control plants)?
The pest or weed control at 80 g/ha was 100%.

What about the pest or weed control at 80 g/ha ([4]; Avena fatua, 504 h) of the same compound?
Its pest or weed control at 80 g/ha is 90%.

And the pest or weed control at 80 g/ha ([5]; Echinochloa crus-galli, 504 h, 80 g/ha)?
The pest or weed control at 80 g/ha was 90%.

What about the pest or weed control at 80 g/ha ([6]; Hordeum murinum, 504 h) of the same compound?
The pest or weed control at 80 g/ha was 80%.

What about the pest or weed control at 80 g/ha ([7]; Tripleurospermum inodorum, 504 h, dosage 80 g/ha) of the same compound?
The pest or weed control at 80 g/ha was 100%.

What about the pest or weed control at 80 g/ha ([8]; Setaria viridis, 504 h, dosage 80 g/ha) of the same compound?
The pest or weed control at 80 g/ha was 100%.

And the pest or weed control at 80 g/ha ([9]; Stellaria media, 504 h, dosage 80 g/ha)?
Its pest or weed control at 80 g/ha is 90%.

What about the pest or weed control at 20 g/ha ([21]; dosage 20 g/ha) of the same compound?
Its pest or weed control at 20 g/ha is 80%.

And the pest or weed control at 80 g/ha ([21]; dosage 80 g/ha)?
The pest or weed control at 80 g/ha was 90%.

What about the pest or weed control at 80 g/ha ([11]; Digitaria sanguinalis, 504 h) of the same compound?
Its pest or weed control at 80 g/ha is 100%.

What about the pest or weed control at 5 g/ha ([12]; Abutilon theophrasti, 504 h, dosage 5 g/ha) of the same compound?
The pest or weed control at 5 g/ha was 90%.

And the pest or weed control at 20 g/ha ([12]; Abutilon theophrasti, 504 h, dosage 20 g/ha)?
The pest or weed control at 20 g/ha was 90%.

What about the pest or weed control at 20 g/ha ([13]; Alopecurus myosuroides, 504 h) of the same compound?
The pest or weed control at 20 g/ha was 80%.

And the pest or weed control at 20 g/ha ([14]; Amaranthus retroflexus, 504 h)?
The pest or weed control at 20 g/ha was 90%.

What about the pest or weed control at 20 g/ha [22] of the same compound?
The pest or weed control at 20 g/ha was 80%.

And the pest or weed control at 20 g/ha ([15]; Echinochloa crus-galli, 504 h)?
The pest or weed control at 20 g/ha was 100%.

And the pest or weed control at 20 g/ha ([17]; Setaria viridis, 504 h, dosage 20 g/ha)?
The pest or weed control at 20 g/ha was 80%.

What about the pest or weed control at 20 g/ha ([18]; Stellaria media, 504 h, 20 g/ha) of the same compound?
Its pest or weed control at 20 g/ha is 90%.

What about the pest or weed control at 5 g/ha ([18]; Stellaria media, 504 h, dosage 5 g/ha) of the same compound?
Its pest or weed control at 5 g/ha is 80%.

And the pest or weed control at 5 g/ha ([20]; Digitaria sanguinalis, 504 h, 5 g/ha)?
Its pest or weed control at 5 g/ha is 80%.

What about the pest or weed control at 20 g/ha ([20]; Digitaria sanguinalis, 504 h, 20 g/ha) of the same compound?
The pest or weed control at 20 g/ha was 90%.
